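The compound was tested at five concentrations on cells cultured in 96-well plates, with a 48-hour exposure period. Abbreviation: GI50, concentration required for 50% inhibition of growth.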 Activity calls are given as the source filed them. Cut-off read from the data, not from the text of the source: active = GI50 up to about 1.1 µM and inactive = higher.
Assays:
Test in all cases: NCI anticancer screen, dose series, 48 h
SR = tested on: SR
SNB-19 = tested on: SNB-19
SK-MEL-2 = tested on: SK-MEL-2
KM12 = tested on: KM12
EKVX = tested on: EKVX
MCF7 = tested on: MCF7
OVCAR-3 = tested on: OVCAR-3
MDA-MB-435 = tested on: MDA-MB-435
MOLT-4 = tested on: MOLT-4
NCI/ADR-RES = tested on: NCI/ADR-RES
UACC-62 = tested on: UACC-62
A549 = tested on: A549
M14 = tested on: M14
MDA-N = tested on: MDA-N
NCI-H226 = tested on: NCI-H226
RXF 393 = tested on: RXF 393
SK-MEL-5 = tested on: SK-MEL-5
SNB-75 = tested on: SNB-75
HOP-92 = tested on: HOP-92
NCI-H460 = tested on: NCI-H460

Measured: GI50

NNC(=O)Cn1c2ccc(Br)cc2c2nc3ccccc3nc21
inactive: SR > 100 µM | SNB-19 80 µM | SK-MEL-2 19.1 µM | KM12 > 100 µM | EKVX 9.59 µM | MCF7 69.3 µM | OVCAR-3 23.2 µM | MDA-MB-435 > 100 µM | MOLT-4 11.7 µM | NCI/ADR-RES > 100 µM | UACC-62 56.5 µM | A549 94.8 µM | M14 > 100 µM | MDA-N > 100 µM | NCI-H226 > 100 µM | RXF 393 23.2 µM | SK-MEL-5 > 100 µM | SNB-75 > 100 µM

OC1COC(OCc2ccccc2)C(O)C1O (stereo not given)
inactive: HOP-92 > 100 µM | SR > 100 µM | SNB-19 > 100 µM | NCI-H460 > 100 µM | SK-MEL-2 > 100 µM | KM12 > 100 µM | EKVX > 100 µM | MCF7 > 100 µM | OVCAR-3 > 100 µM | MDA-MB-435 > 100 µM | MOLT-4 > 100 µM | NCI/ADR-RES > 100 µM | UACC-62 > 100 µM | A549 > 100 µM | M14 > 100 µM | MDA-N > 100 µM | NCI-H226 > 100 µM | RXF 393 > 100 µM | SK-MEL-5 > 100 µM

O=C(Oc1c(Br)cc(Br)cc1C(=O)Oc1ccccc1)C(=O)Oc1c(Br)cc(Br)cc1C(=O)Oc1ccccc1
inactive: HOP-92 12 µM | SR 18.5 µM | SNB-19 20 µM | NCI-H460 > 100 µM | SK-MEL-2 26.7 µM | KM12 24 µM | EKVX 26.2 µM | MCF7 26.7 µM | OVCAR-3 24.3 µM | MDA-MB-435 10.1 µM | MOLT-4 14.9 µM | NCI/ADR-RES 38.9 µM | UACC-62 24.8 µM | A549 14.5 µM | M14 34.1 µM | MDA-N 27.5 µM | NCI-H226 16 µM | RXF 393 12.9 µM | SK-MEL-5 17.3 µM

COc1ccc2c3c1O[C@H]1C(O)CCC4(O)[C@@H](C2)NCC[C@]314 (stereo not given in full)
inactive: HOP-92 > 100 µM | SR > 100 µM | SNB-19 > 100 µM | SK-MEL-2 > 100 µM | KM12 > 100 µM | EKVX > 100 µM | MCF7 > 100 µM | OVCAR-3 > 100 µM | MDA-MB-435 > 100 µM | MOLT-4 > 100 µM | NCI/ADR-RES > 100 µM | UACC-62 > 100 µM | A549 > 100 µM | M14 > 100 µM | MDA-N > 100 µM | NCI-H226 > 100 µM | SK-MEL-5 > 100 µM

Cc1cc2c(c(S(=O)(=O)c3ccccc3[N+](=O)[O-])c1)NCCC2
inactive: SR > 100 µM | SNB-19 > 100 µM | NCI-H460 66.7 µM | SK-MEL-2 51.4 µM | KM12 63.8 µM | EKVX > 100 µM | MCF7 58.6 µM | OVCAR-3 65.2 µM | MDA-MB-435 25.6 µM | NCI/ADR-RES 50 µM | UACC-62 17.8 µM | A549 40.3 µM | M14 69.8 µM | MDA-N 34.8 µM | NCI-H226 > 100 µM | RXF 393 > 100 µM | SK-MEL-5 18.7 µM | SNB-75 > 100 µM

O=C(c1ccccc1)n1[nH]c(=O)n(-c2ccc(Cl)cc2)c1=O
inactive: SR > 100 µM | SNB-19 39 µM | NCI-H460 > 100 µM | SK-MEL-2 > 100 µM | KM12 > 100 µM | EKVX > 100 µM | MCF7 > 100 µM | OVCAR-3 > 100 µM | MDA-MB-435 > 100 µM | MOLT-4 > 100 µM | NCI/ADR-RES > 100 µM | UACC-62 > 100 µM | A549 > 100 µM | M14 > 100 µM | MDA-N > 100 µM | NCI-H226 > 100 µM | RXF 393 > 100 µM | SK-MEL-5 > 100 µM | SNB-75 > 100 µM

COc1cc2c(cc1OC)C1CN3CCCC3C(O)C1c1cc(OC)c(OC)cc1-2 (stereo not given)
inactive: HOP-92 > 100 µM | SR > 100 µM | SNB-19 > 100 µM | NCI-H460 > 100 µM | SK-MEL-2 > 100 µM | KM12 > 100 µM | EKVX > 100 µM | MCF7 > 100 µM | MDA-MB-435 > 100 µM | MOLT-4 > 100 µM | NCI/ADR-RES > 100 µM | UACC-62 > 100 µM | A549 > 100 µM | M14 > 100 µM | MDA-N > 100 µM | RXF 393 82.8 µM | SK-MEL-5 > 100 µM

COc1ccccc1Cn1c2c(c3cc(O)ccc31)C(=O)c1ccccc1C2=O
inactive: SR 52.8 µM | SNB-19 27.1 µM | NCI-H460 26.2 µM | SK-MEL-2 38.6 µM | KM12 70.6 µM | MCF7 10.1 µM | OVCAR-3 28.9 µM | MDA-MB-435 84.3 µM | MOLT-4 > 100 µM | NCI/ADR-RES 11.3 µM | UACC-62 17 µM | A549 19.5 µM | M14 > 100 µM | MDA-N > 100 µM | NCI-H226 21.6 µM | RXF 393 2.6 µM | SK-MEL-5 37.2 µM | SNB-75 19.2 µM
